Data: ChEMBL document CHEMBL1201862, “PubChem BioAssay data set” (2004)
Values belong to the compound of their own block, whether it stands above or below them. The source made the active and inactive calls.

Assays:
[1] = intracellular Trypanosoma cruzi inhibitors in host cells – cell-based, plate reader, cherry-pick samples, set 3, dose response (AID 651818); format: functional;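 note: compounds incubated with infected cells for about four days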
[2] = HEK-293T viability loss after treatment – luminescence, T-cell screen hits, cytotoxicity control for TCR NF-kB inhibitor project, dose response (AID 489026); format: functional, cell-based;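 note: cells exposed to compound about 14 hours before the viability readout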
[3] = general mammalian cell viability loss – inhibitor set, cherry-pick, set 2, cytotoxicity control for miR-122 modulator project, dose response (AID 720697); format: functional, cell-based
[4] = target: T1, DNA repair and recombination protein RAD54-like (Homo sapiens, UniProt Q92698); assay: RAD54 Holliday junction migration blockers – biochemical, fluorescence, cherry-picked samples, dose series, confirmation (AID 651657); format: functional
T1 sequence (Q92698 whole entry): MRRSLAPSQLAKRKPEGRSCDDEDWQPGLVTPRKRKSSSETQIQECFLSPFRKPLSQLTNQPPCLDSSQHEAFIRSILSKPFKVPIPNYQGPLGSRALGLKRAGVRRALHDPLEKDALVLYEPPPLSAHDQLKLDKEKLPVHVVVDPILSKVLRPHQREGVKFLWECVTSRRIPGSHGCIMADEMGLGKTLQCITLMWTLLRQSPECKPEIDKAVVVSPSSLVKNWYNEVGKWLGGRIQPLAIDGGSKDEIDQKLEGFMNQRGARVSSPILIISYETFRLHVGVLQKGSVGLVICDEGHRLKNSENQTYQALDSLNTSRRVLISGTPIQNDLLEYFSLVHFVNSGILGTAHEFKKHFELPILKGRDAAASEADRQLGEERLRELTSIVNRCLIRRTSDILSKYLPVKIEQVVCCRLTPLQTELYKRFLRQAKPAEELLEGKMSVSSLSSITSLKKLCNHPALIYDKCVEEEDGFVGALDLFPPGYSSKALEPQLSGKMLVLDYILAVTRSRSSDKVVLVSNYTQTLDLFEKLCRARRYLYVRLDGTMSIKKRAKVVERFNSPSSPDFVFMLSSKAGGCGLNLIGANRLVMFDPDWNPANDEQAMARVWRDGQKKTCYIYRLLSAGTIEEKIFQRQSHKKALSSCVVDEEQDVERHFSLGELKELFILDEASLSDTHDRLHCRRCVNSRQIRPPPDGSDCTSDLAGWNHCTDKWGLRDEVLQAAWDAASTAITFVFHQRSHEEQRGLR

[5] = target: T2, DNA repair protein RAD52 homolog (Homo sapiens, UniProt P43351); format: functional, biochemical
T2 sequence (P43351 whole entry): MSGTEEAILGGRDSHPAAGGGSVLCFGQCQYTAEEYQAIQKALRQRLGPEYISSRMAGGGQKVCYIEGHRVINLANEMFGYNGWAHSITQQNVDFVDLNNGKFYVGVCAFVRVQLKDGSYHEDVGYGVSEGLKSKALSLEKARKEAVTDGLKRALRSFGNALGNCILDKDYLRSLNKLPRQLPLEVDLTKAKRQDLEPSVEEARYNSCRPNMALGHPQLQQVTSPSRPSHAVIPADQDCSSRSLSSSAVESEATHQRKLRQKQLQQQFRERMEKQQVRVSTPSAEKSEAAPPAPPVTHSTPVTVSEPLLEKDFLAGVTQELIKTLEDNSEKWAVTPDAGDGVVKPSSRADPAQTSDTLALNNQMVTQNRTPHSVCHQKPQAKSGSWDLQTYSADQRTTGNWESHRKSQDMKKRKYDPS

[6] = HIV-1 Vif–A3G interaction blockers – biochemical, TR-FRET, GST-Vif 1-94, biotin-A3G peptide, dose response retest, primary screen (AID 1117319); format: functional;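 note: TR-FRET signal of purified GST-Vif binding a biotinylated A3G peptide; inhibitors lower the FRET signal by blocking Vif and A3G binding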
[7] = target: T3, Short transient receptor potential channel 4 (Mus musculus, UniProt Q9QUQ5); assay: block of DAMGO-driven TRPC4 calcium entry – cell-based, HEK293 TRPC4/mu-opioid, Fluo-4 calcium, dose response (AID 434942); format: functional;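 note: potency of inhibitors blocking the TRPC4 calcium response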
T3 sequence (Q9QUQ5 whole entry): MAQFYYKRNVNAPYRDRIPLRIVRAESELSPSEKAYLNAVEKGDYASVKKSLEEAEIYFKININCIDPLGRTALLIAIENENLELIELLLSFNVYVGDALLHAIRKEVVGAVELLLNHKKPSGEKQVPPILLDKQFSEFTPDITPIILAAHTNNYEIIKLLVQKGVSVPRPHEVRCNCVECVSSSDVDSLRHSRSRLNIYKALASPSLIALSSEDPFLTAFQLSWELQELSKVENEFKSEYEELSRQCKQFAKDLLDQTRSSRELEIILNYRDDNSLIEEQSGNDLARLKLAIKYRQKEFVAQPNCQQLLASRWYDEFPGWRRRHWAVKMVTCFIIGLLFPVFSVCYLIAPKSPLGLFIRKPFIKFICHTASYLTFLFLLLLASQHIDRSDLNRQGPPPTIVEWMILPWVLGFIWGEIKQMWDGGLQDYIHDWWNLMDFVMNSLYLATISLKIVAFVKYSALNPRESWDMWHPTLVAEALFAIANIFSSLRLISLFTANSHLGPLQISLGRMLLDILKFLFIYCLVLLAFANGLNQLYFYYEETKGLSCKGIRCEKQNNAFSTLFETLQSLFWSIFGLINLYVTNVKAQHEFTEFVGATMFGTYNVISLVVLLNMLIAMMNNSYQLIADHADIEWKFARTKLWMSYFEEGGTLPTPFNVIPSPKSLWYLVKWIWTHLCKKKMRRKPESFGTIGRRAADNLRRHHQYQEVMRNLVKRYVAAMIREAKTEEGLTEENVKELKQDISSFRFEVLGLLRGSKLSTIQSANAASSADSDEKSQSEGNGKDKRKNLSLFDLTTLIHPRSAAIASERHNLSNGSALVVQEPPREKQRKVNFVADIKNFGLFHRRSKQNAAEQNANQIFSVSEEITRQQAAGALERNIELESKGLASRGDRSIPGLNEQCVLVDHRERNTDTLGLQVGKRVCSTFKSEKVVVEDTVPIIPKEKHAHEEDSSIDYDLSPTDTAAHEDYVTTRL

[8] = target: T4, Microphthalmia-associated transcription factor (Homo sapiens, UniProt O75030); assay: reducers of TRPM1 reporter luminescence, concentration series – cell-based, SK-MEL-5, cherry-picked, set 3, MITF inhibitor project, dose response (AID 493073); format: functional;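 note: SK-MEL-5 melanoma cells with luciferase driven by the MITF target TRPM1 promoter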
T4 sequence (O75030 whole entry): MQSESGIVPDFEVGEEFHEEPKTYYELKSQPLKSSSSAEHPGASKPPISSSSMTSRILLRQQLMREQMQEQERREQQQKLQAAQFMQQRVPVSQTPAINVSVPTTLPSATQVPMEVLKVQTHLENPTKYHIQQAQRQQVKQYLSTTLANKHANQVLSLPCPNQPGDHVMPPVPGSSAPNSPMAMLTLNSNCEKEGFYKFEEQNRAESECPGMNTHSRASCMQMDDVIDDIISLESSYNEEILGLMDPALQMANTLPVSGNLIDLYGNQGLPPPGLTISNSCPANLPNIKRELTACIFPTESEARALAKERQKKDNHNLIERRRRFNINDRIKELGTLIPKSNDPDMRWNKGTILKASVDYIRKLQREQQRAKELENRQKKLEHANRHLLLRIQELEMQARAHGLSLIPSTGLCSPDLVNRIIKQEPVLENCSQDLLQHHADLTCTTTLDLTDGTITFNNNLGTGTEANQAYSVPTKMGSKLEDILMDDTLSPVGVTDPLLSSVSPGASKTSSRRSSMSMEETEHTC

Structure (SMILES): C[C@@H]1CCCCO[C@H](CN(C)Cc2ccc(Cl)c(Cl)c2)[C@@H](C)CN([C@H](C)CO)C(=O)c2cc(NC(=O)Nc3ccccc3)ccc2O1
AC50 [1]: 3.65 µM (active)

Structure (SMILES): Cc1ccc(N(C)S(=O)(=O)c2ccc(-c3cnc(C4CC4)o3)cc2)cc1
IC50 [2]: > 80 µM (inactive)

Structure (SMILES): COc1cc2nc(C3CCC3)n(NC(=O)C3CCCC(OC)C3)c(=O)c2cc1OC (configuration not stated)
AC50 [3]: 6.2 µM (active)

Structure (SMILES): CCOC(=O)c1[nH]c(C)c(C(=O)OCC(=O)NC(C)c2ccc(F)cc2)c1C (configuration not stated)
IC50 [2]: > 80 µM (inactive)

AC50 [4]: 30.6 µM (active)
AC50 [5]: 7.04 µM (active)
Structure (SMILES): COc1cccc(-c2cc3nc(NCCCN(C)C)n(C)c(=O)c3s2)c1

AC50 [4]: 12.4 µM (active)
Structure (SMILES): CCN1CCN(c2nc(N)c([N+](=O)[O-])c(Nc3cccc(C)c3)n2)CC1

IC50 [6]: > 100 µM (active)
Structure (SMILES): NCCOc1ccccc1Cc1ccccc1

Structure (SMILES): COc1ccc(OC)c(CN2CCCC(C(=O)c3sccc3C)C2)c1 (configuration not stated)
EC50 [7]: 1.88 µM (active)

Structure (SMILES): COc1cc(C2=NOC(C(=O)NCc3ccc(F)cc3)C2)cc(OC)c1OC (configuration not stated)
IC50 [2]: > 80 µM (inactive)

IC50 [6]: > 100 µM (active)
Structure (SMILES): O=C(CCN1C(=O)c2ccccc2C1=O)NCc1ccco1

EC50 [7]: 3.35 µM (active)
Structure (SMILES): CCOC(=O)C1(Cc2ccccc2C)CCCN(Cc2ccc(NC(C)=O)cc2)C1 (configuration not stated)

IC50 [6]: > 100 µM (active)
Structure (SMILES): COC(=O)Nc1sc2c(c1C(=O)NCc1ccco1)CCCC2

Structure (SMILES): Cc1cc(C(=O)Nc2cccc3c2O[C@H](CN(C)Cc2ccc(C(=O)Nc4ccccc4N)cc2)[C@H](C)CN([C@H](C)CO)C3=O)n(C)n1
AC50 [1]: 3.15 µM (active)

IC50 [6]: > 100 µM (active)
Structure (SMILES): CC(=O)Nc1ccc(S(=O)(=O)Nc2nnc(C(C)C)s2)cc1

Structure (SMILES): CCOC(=O)c1[nH]c(C=O)c(C(=O)OCC)c1C
IC50 [2]: > 80 µM (inactive)

Structure (SMILES): Cc1ccc(C(O)(c2ccc(C)c(C)c2)C2CN3CCC2CC3)cc1C (configuration not stated)
AC50 [8]: 10.1 µM (active)
